Assay results as given in patent US20080247962A1, “Pharmaceutical Compositions Comprising Higher Primary Aliphatic Alcohols and Hmg Coa Reductase Inhibitor and Process of Preparation Thereof” (PANACEA BIOTEC LTD., priority 2004, published 2008).

Test system: Casein-Starch-Induced Hypercholesterolemia in Rabbits
Test: Casein-starch-induced hypercholesterolemia in rabbits (serum lipid profile)
Type: in vivo
Parameters: key to LDL-C level: serum LDL-C in mg/dL, mean±S.E.M
Conditions: for serum total cholesterol level / LDL-C level: mean±S.E.M.; for LDL-C level: in mg/dL (unit assumed)
Procedure: Casein-Starch-Induced Hypercholesterolemia in Rabbits
The observed unexpected synergistic lipid lowering effect of combination of Extract-A and atorvastatin is evidenced by the test conducted in rabbits. Rabbits of either sex were procured from Central Animal House facility; Panacea Biotec Ltd., India. Animals weighing 1.5-2.0 Kg at the time of testing were used. All animals were dosed sequentially by the oral route with Extract-A and/or atorvastatin suspended in 0.5% of carboxymethyl cellulose (CMC). A dosing volume of 2 ml/kg was used for each sequential suspension.
The fasting serum lipid profile (TC, TGs, LDL-C, HDL-C) was estimated before initiation of the experiment. […] Hypercholesterolemia was induced by feeding rabbits with wheat casein-starch diet (g/kg) containing wheat flour 333, cellulose 300, casein 270, water 20, maize oil 10, and mineral mixture (Kroon et al., 1982) for 60 days. Feed consumption was restricted to 100 g/day per animal. The cholesterol level was estimated every 15 days. After 60 days animals with total cholesterol level >150 mg/dl were randomized to treatment (n=6/group). Thereafter, various doses of Extract-A and/or atorvastatin were administered for another 60 days during which animals were fed with casein-starch diet. Blood samples were collected from fasted rabbits and analyzed for any alteration in serum lipid profile after 60 days of test compound(s) administration.
All the data are expressed as mean±S.E.M. (Standard Error of Mean). Student t-test was-used to compare the lipid parameters between animals fed with standard and hypercholesterolemic diet. The difference between various drug treated groups was analyzed by ANOVA followed by Dunnett's test. A value of P<0.05 was considered as statistically significant.

[1] = atorvastatin 2.5 mg/kg p.o., day 0, pre-dose
[2] = atorvastatin 2.5 mg/kg p.o., day 15, pre-dose
[3] = atorvastatin 2.5 mg/kg p.o., day 30, pre-dose
[4] = atorvastatin 2.5 mg/kg p.o., day 60, start of dosing
[5] = atorvastatin 2.5 mg/kg p.o., day 75 (dosing from day 60)
[6] = atorvastatin 2.5 mg/kg p.o., day 90 (dosing from day 60)
[7] = atorvastatin 2.5 mg/kg p.o., day 105 (dosing from day 60)
[8] = atorvastatin 2.5 mg/kg p.o., day 120 (dosing from day 60)
[9] = atorvastatin 5 mg/kg p.o., day 0, pre-dose
[10] = atorvastatin 5 mg/kg p.o., day 15, pre-dose
[11] = atorvastatin 5 mg/kg p.o., day 30, pre-dose
[12] = atorvastatin 5 mg/kg p.o., day 60, start of dosing
[13] = atorvastatin 5 mg/kg p.o., day 75 (dosing from day 60)
[14] = atorvastatin 5 mg/kg p.o., day 90 (dosing from day 60)
[15] = atorvastatin 5 mg/kg p.o., day 105 (dosing from day 60)
[16] = atorvastatin 5 mg/kg p.o., day 120 (dosing from day 60)
[17] = single agents: Extract-A 100 and 200 mg/kg p.o., atorvastatin 2.5 and 5 mg/kg p.o.

`CC(C)c1c(C(=O)Nc2ccccc2)c(-c2ccccc2)c(-c2ccc(F)cc2)n1CC[C@@H](O)C[C@@H](O)CC(=O)O` [At, atorvastatin] was tested, and the “serum total cholesterol level” value [1] was 56.83 ± 4.84 mg/dL, the LDL-C level [1] was 21.4 ± 8.04 and the “serum total cholesterol level” value [2] was 96.00 ± 2.08 mg/dL. The LDL-C level [2] was 61.03 ± 1.87, the “serum total cholesterol level” value [3] was 144.83 ± 6.6 mg/dL and the LDL-C level [3] was 106.6 ± 5.85. For the same molecule, the “serum total cholesterol level” value [4] was 204.66 ± 6.58 mg/dL, the LDL-C level [4] was 166.07 ± 4.97 and the “serum total cholesterol level” value [5] was 202.5 ± 15.15 mg/dL. The LDL-C level [5] was 165.53 ± 14.81, the “serum total cholesterol level” value [6] was 205.83 ± 13.31 mg/dL and the LDL-C level [6] was 166.47 ± 13.66. For the same molecule, the “serum total cholesterol level” value [7] was 201.33 ± 11.49 mg/dL, the LDL-C level [7] was 159.3 ± 12.53 and the “serum total cholesterol level” value [8] was 201.16 ± 10.4 mg/dL. The LDL-C level [8] was 158.00 ± 12.22, the “serum total cholesterol level” value [9] was 68.50 ± 5.99 mg/dL and the LDL-C level [9] was 30.33 ± 6.44. The “serum total cholesterol level” value [10] was 101.16 ± 1.88 mg/dL, the LDL-C level [10] was 61.83 ± 1.77 and the “serum total cholesterol level” value [11] was 142.16 ± 10.37 mg/dL. For the same molecule, the LDL-C level [11] was 104.17 ± 11.76, the “serum total cholesterol level” value [12] was 226.67 ± 9.74 mg/dL and the LDL-C level [12] was 188.67 ± 10.00. The “serum total cholesterol level” value [13] was 213.16 ± 5.69 mg/dL, the LDL-C level [13] was 175.07 ± 5.06 and the “serum total cholesterol level” value [14] was 201.83 ± 5.81 mg/dL. For the same molecule, the LDL-C level [14] was 161.3 ± 6.04, the “serum total cholesterol level” value [15] was 198.17 ± 6.65 mg/dL and the LDL-C level [15] was 155.17 ± 6.87. For the same molecule, the “serum total cholesterol level” value [16] was 195.50 ± 5.31 mg/dL, the LDL-C level [16] was 149.1 ± 4.72 and the “LDL-C in comparison to hypercholesterolemic control rabbits” value [17] was “reversed”. The “TC in comparison to hypercholesterolemic control rabbits” value [17] was “reversed”.
